Where two headings read alike, the source gives them in different places. Values belong to the compound of their own block, whether it stands above or below them.
Tests used:
[1] = tested on: Alzheimer's Disease patients; assay: ADAS-Cog score following treatment of Alzheimer's Disease patients with tramiprosate, retrospective subgroup analysis in 599 ApoE4+ subjects (FIGS. 1-2); assay type: in vivo, human; conditions: through 18 months, 150 mg BID, n=183, on top of acetylcholinesterase inhibitors and/or memantine
Description: FIG. 1 illustrates reduced ADAS-Cog score following treatment of Alzheimer's Disease patients with tramiprosate. At 26 weeks−1.25 (82%) P=0.0219 for 100 mg BID, −1.03 (57%), P=0.118 for 150 mg BID. At 52 weeks−2.03 (35%) P=0.002 for 100 mg BID, −1.85 (32%), P=0.006 for 150 mg BID. At 65 weeks−1.52 (22%) P=0.024 for 100 mg BID, −1.90 (27%) P=0.005 for 150 mg BID. At 78 weeks−1.90 (27%) P=0.005 for 100 mg BID, −1.86 (21%) P=0.028 for 150 mg BID. (n=599). Data derived from Caltagirone et al., “The potential protective effect of tramiprosate (homotaurine) against Alzheimer's disease: a review,” Aging Clin Exp Res. 2012 December; 24(6):580-7.
In certain embodiments, the efficacy of a compound may be determined through the ADAS-cog (Alzheimer's Disease Assessment Scale-cognitive subscale). ADAS was designed to measure the severity of the most important symptoms of Alzheimer's disease (AD). Its subscale ADAS-cog is the most popular cognitive testing instrument used in clinical trials of nootropics. It consists of 11 tasks measuring the disturbances of memory, language, praxis, attention and other cognitive abilities which are often referred to as the core symptoms of AD. The ADAS-Cog helps evaluate cognition and differentiates between normal cognitive functioning and impaired cognitive functioning. […]

[2] = tested on: Alzheimer's Disease patients; assay: ADAS-Cog by ApoE4 subgroup in merged dataset; assay type: in vivo, human; conditions: for Change in ADAS-Cog Slope vs placebo / Change in ADAS-Cog Week 78 / ADAS-Cog Slope vs placebo / ADAS-Cog Week 78: merged dataset; for Change in ADAS-Cog Slope vs placebo / Change in ADAS-Cog Week 78: <80 years old
Source text: (§1) In certain embodiments, the efficacy of a compound may be determined through the ADAS-cog (Alzheimer's Disease Assessment Scale-cognitive subscale). ADAS was designed to measure the severity of the most important symptoms of Alzheimer's disease (AD). Its subscale ADAS-cog is the most popular cognitive testing instrument used in clinical trials of nootropics. It consists of 11 tasks measuring the disturbances of memory, language, praxis, attention and other cognitive abilities which are often referred to as the core symptoms of AD. The ADAS-Cog helps evaluate cognition and differentiates between normal cognitive functioning and impaired cognitive functioning. It is especially useful for determining the extent of cognitive decline and can help evaluate which stage of Alzheimer's disease a person is in, based on their answers and score. The ADAS-Cog can be used in clinical trials in order to determine incremental improvements or declines in cognitive functioning.
(§2) Patients were administered 3APS at 150 mg BID and 100 mg BID or were provided a placebo. ADAS-Cog results were measured. The data establish that the decline in score is delayed by 3APS. At 13 weeks a small improvement in ADAS-cog was observed. Over time, the difference increased.

[3] = tested on: Alzheimer's Disease patients; assay: Change in ADAS-Cog by ApoE status in North American Trial; assay type: in vivo, human; conditions: for Change in ADAS-Cog Slope vs placebo / Change in ADAS-Cog Week 78: North American Trial
Source text: as §1, §2
Patients were administered 3APS and ADAS-Cog results were obtained at various timepoints. Patients were then genotyped to detect the presence of ApoE4 alleles. FIG. 8 illustrates the advantageous effects of tramiprosate, the active agent of Val-APS, in certain sub-populations segregated based on Apo E4 status. […] Data is presented at 13 weeks, 26 weeks, 39 weeks, 52 weeks, 65 weeks, and 78 weeks. […] ApoE4 prevalence correlates with improved cognition scores.

[4] = tested on: Alzheimer's Disease patients; assay: CDR-SB (function) in ApoE4+ subjects (FIG. 3); assay type: in vivo, human; conditions: through 18 months, 150 mg BID, n=183, on top of acetylcholinesterase inhibitors and/or memantine
[5] = tested on: Alzheimer's Disease patients; conditions: n=599, cited from earlier work
[6] = Plasma and brain exposure of tramiprosate after oral Val-APS or tramiprosate in animals (FIG. 4); assay type: in vivo; conditions: Val-APS prodrug versus tramiprosate
Source text: L-Valyl-3-aminopropanesulfonate (Val-APS) is an orally available small molecule prodrug of tramiprosate with improved pharmaceutical properties. Tramiprosate was advanced to a ˜2,000 patient Phase 3 program which completed in 2007. […] Thus the present disclosure provides for administration of certain compounds including val-APS to ApoE4-positive patients for the treatment of Alzheimer's Disease.
The AUC ratio of brain tramiprosate exposure due to Val-APS compared to tramiprosate is ˜2.1.

[7] = Tolerability of Val-APS prodrug over tramiprosate; assay type: in vivo
[8] = human, in vivo

SMILES: NCCCS(=O)(=O)O [Compound 3APS, 3-amino-1-propanesulfonic acid]
cognition (ADAS-cog) [1]: clinically meaningful improvement
decline in ADAS-Cog score ([2]; 150 mg BID and 100 mg BID versus placebo): delayed
Change in ADAS-Cog Slope vs placebo ([2]; ApoE4+, 100 mg BID): −3.92
Change in ADAS-Cog Week 78 ([2]; ApoE4+, 100 mg BID): −1.13
Change in ADAS-Cog Slope vs placebo ([2]; ApoE4+, 150 mg BID): −8.65
Change in ADAS-Cog Week 78 ([2]; ApoE4+, 150 mg BID): −2.17
Change in ADAS-Cog Slope vs placebo ([2]; ApoE4−, 100 mg BID): −4.40
Change in ADAS-Cog Week 78 ([2]; ApoE4−, 100 mg BID): −2.54
Change in ADAS-Cog Slope vs placebo ([2]; ApoE4−, 150 mg BID): −2.81
Change in ADAS-Cog Week 78 ([2]; ApoE4−, 150 mg BID): −0.93
Change in ADAS-Cog Slope vs placebo ([2]; Total, 100 mg BID): −3.94
Change in ADAS-Cog Week 78 ([2]; Total, 100 mg BID): −1.55
Change in ADAS-Cog Slope vs placebo ([2]; Total, 150 mg BID): −6.37
Change in ADAS-Cog Week 78 ([2]; Total, 150 mg BID): −1.66
ADAS-Cog Slope vs placebo ([2]; ApoE4+, 100 mg BID): −3.61
ADAS-Cog Week 78 ([2]; ApoE4+, 100 mg BID): −1.09
ADAS-Cog Slope vs placebo ([2]; ApoE4+, 150 mg BID): −7.09
ADAS-Cog Week 78 ([2]; ApoE4+, 150 mg BID): −1.73
ADAS-Cog Slope vs placebo ([2]; ApoE4−, 100 mg BID): −2.45
ADAS-Cog Week 78 ([2]; ApoE4−, 100 mg BID): −1.92
ADAS-Cog Slope vs placebo ([2]; ApoE4−, 150 mg BID): 0.35
ADAS-Cog Week 78 ([2]; ApoE4−, 150 mg BID): −0.66
ADAS-Cog Slope vs placebo ([2]; Total, 100 mg BID): −3.18
ADAS-Cog Week 78 ([2]; Total, 100 mg BID): −1.34
ADAS-Cog Slope vs placebo ([2]; Total, 150 mg BID): −4.19
ADAS-Cog Week 78 ([2]; Total, 150 mg BID): −1.27
Change in ADAS-Cog Slope vs placebo ([3]; ApoE4+ and ++, 100 mg BID): −1.43
Change in ADAS-Cog Week 78 ([3]; ApoE4+ and ++, 100 mg BID): −0.81
Change in ADAS-Cog Slope vs placebo ([3]; ApoE4+ and ++, 150 mg BID): −7.49
Change in ADAS-Cog Week 78 ([3]; ApoE4+ and ++, 150 mg BID): −1.67
Change in ADAS-Cog Slope vs placebo ([3]; ApoE4++, 100 mg BID): −4.33
Change in ADAS-Cog Week 78 ([3]; ApoE4++, 100 mg BID): −1.49
Change in ADAS-Cog Slope vs placebo ([3]; ApoE4++, 150 mg BID): −19.79
Change in ADAS-Cog Week 78 ([3]; ApoE4++, 150 mg BID): −4.63
Change in ADAS-Cog Slope vs placebo ([3]; ApoE4−, 100 mg BID): −2.04
Change in ADAS-Cog Week 78 ([3]; ApoE4−, 100 mg BID): −1.23
Change in ADAS-Cog Slope vs placebo ([3]; ApoE4−, 150 mg BID): 3.57
Change in ADAS-Cog Week 78 ([3]; ApoE4−, 150 mg BID): 0.59
Change in ADAS-Cog Slope vs placebo ([3]; Total, 100 mg BID): −1.75
Change in ADAS-Cog Week 78 ([3]; Total, 100 mg BID): −0.93
Change in ADAS-Cog Slope vs placebo ([3]; Total, 150 mg BID): −3.32
Change in ADAS-Cog Week 78 ([3]; Total, 150 mg BID): −0.83
improvement versus placebo on cognition ([3]; homozygous ApoE4 subjects, 150 mg BID, n=34): 4 point
improvement versus placebo on the ADAS-cog ([3]; homozygous ApoE4 subjects, 150 mg BID, n=34, after 18 months of treatment): 4.62 points
function (CDR-SB) [4]: clinically meaningful improvement
ADAS-Cog score, percent in brackets ([5]; 26 weeks, 100 mg BID): 82%
ADAS-Cog score ([5]; 26 weeks, 150 mg BID): −1.03
ADAS-Cog score, percent in brackets ([5]; 26 weeks, 150 mg BID): 57%
ADAS-Cog score, percent in brackets ([5]; 52 weeks, 100 mg BID): 35%
ADAS-Cog score ([5]; 52 weeks, 150 mg BID): −1.85
ADAS-Cog score, percent in brackets ([5]; 52 weeks, 150 mg BID): 32%
ADAS-Cog score, percent in brackets ([5]; 65 weeks, 100 mg BID): 22%
ADAS-Cog score ([5]; 65 weeks, 150 mg BID): −1.90
ADAS-Cog score, percent in brackets ([5]; 65 weeks, 150 mg BID): 27%
ADAS-Cog score ([5]; 78 weeks, 100 mg BID): −1.90
ADAS-Cog score, percent in brackets ([5]; 78 weeks, 100 mg BID): 27%
ADAS-Cog score ([5]; 78 weeks, 150 mg BID): −1.86
ADAS-Cog score, percent in brackets ([5]; 78 weeks, 150 mg BID): 21%

accumulation in the brain [6]: improved
formation of metabolite NRM5074 [8]: reduced
inter-subject PK variability [8]: decreased
t½ [8]: 14.9 ±3.9
SMILES: CC(C)[C@H](N)C(=O)NCCCS(=O)(=O)O [Val-APS, L-Valyl-3-aminopropanesulfonate]
GI tolerability [7]: improved
nausea & vomiting [7]: reduced
